Several values for one entry are separate records, joined by “and”; a condition that tells them apart may be missing. Identical values can stand only once. Activity calls are given as the source filed them.

Usually IC50 stands for the concentration that inhibits the measured activity by half. As a reminder, the AC50 is the concentration giving half of the maximal activity seen. The term EC50 denotes the concentration giving half of the maximal effect.

The nature of assay [1]: Late stage results for the probe development effort to identify inhibitors of Plasmodium falciparum gametocytes: Luminescence-based cell-based high throughput dose response assay to identify inhibitors of viability of late stage Plasmodium falciparum gametocytes. The assay is classed as functional.
Assay [2] in a line: HepG2 cell cytotoxicity, dose response, cytotoxicity control, luminescence, dry powder, set 9 (AID 743358). The assay is classed as functional, cell-based.
Assay [3] concerns the target Ubiquitin carboxyl-terminal hydrolase BAP1 (Homo sapiens, UniProt Q92560). As to the kind of experiment: BAP1 deubiquitinase inhibitors, dose response, biochemical (AID 714). The assay is classed as functional.
In the next assay the target is Paired box protein Pax-8 (Homo sapiens, UniProt Q06710). As to the kind of experiment: inhibitors of PAX8-driven TPO luciferase reporter, dose response, RMG-I cells, cherry-pick (AID 687027).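 Note: luciferase reporter driven by Pax8 target thyroperoxidase promoter measured by SteadyGlo luminescence.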 The assay is classed as functional, cell-based. On the technique in general: In a reporter assay the amount or activity of a reporter protein is the signal.
The nature of assay [4]: PAX2 cell-based inhibition, dose response, selectivity assay for PAX8 inhibitor project, plate reader, dry powder samples (AID 743048).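 Note: HEK293 cells carrying a WT1 promoter luciferase reporter driven by expressed Pax2; potency is for inhibition of Pax2 driven reporter signal.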 Type of assay: functional.
Assay [5] in a line: PAX5 activity inhibitors, dose response, selectivity assay for PAX8 inhibitor project, cell-based, plate reader, dry powder samples (AID 743047).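 Note: HEK293 cells carrying a Pax5 driven CD19 promoter luciferase reporter; potency of inhibitors that lower reporter luminescence.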 The assay is classed as functional.
Assay [6] in a line: IGROV1 ovarian cancer cell cytotoxicity, dose response, PAX8 inhibitor project, plate reader, dry powder samples (AID 743043). The assay is classed as functional, cell-based. Particulars: IGROV-1.
A short description of assay [7]: cytotoxicity in COV434 cells, dose response, cytotoxicity control for PAX8 inhibitor project, cell-based, plate reader, dry powder, SA7 (AID 743145). The assay is classed as functional.
A short description of assay [8]: cytotoxicity in OV-90 ovarian cancer cells, dose response, PAX8 inhibitor project, cell-based, plate reader, dry powder, SA8 (AID 743149). The assay is classed as functional.
Assay [9] can be described thus: cytotoxicity dependent on PAX8, dose response, cell-based, plate reader, dry powder (AID 743049). Type of assay: functional.
Assay [10] has as its system HEK293. As to the kind of experiment: NOD1 signaling inhibitors, primary screen, cell-based, luminescence, uHTS (AID 1578). Particulars: Homo sapiens. Type of assay: functional.
Assay [11] relates to HEK293. Nature of the assay: cells. Particulars: Homo sapiens. Type of assay: functional, cell-based.
In assay [12] the test system is HEK293. Nature of the assay: cells. The assay is classed as functional, cell-based. Particulars: Homo sapiens. This is another data set of the same source.
For a further assay, the target named is T1, Estrogen receptor (Homo sapiens, UniProt P03372).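 Note: potency for inhibiting coactivator peptide recruitment to the receptor.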
T1 sequence (P03372 whole entry): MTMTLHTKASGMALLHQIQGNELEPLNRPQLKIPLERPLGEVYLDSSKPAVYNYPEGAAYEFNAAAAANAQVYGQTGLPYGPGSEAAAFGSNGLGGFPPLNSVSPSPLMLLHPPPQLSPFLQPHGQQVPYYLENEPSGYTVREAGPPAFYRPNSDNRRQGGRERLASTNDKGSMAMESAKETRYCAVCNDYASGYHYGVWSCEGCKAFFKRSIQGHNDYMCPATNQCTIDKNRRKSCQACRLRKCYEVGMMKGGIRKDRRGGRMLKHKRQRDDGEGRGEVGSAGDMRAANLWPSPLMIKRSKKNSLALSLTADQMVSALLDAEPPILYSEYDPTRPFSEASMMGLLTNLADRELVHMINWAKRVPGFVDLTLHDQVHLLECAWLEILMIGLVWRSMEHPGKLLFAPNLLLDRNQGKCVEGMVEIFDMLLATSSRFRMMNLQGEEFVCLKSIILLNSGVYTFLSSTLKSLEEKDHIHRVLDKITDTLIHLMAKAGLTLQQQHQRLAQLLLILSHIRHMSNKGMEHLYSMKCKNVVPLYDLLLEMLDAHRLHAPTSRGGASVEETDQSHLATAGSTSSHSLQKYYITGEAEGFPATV

Assay [13] concerns the target Nucleotide-binding oligomerization domain-containing protein 2 (Homo sapiens, UniProt Q9HC29). As to the kind of experiment: NOD2 signaling inhibitors, cell-based, luminescence, uHTS, HEK293 (AID 1566). The assay is classed as functional.
Assay [14] concerns HEK293. Nature of the assay: NOD2 signaling inhibitors in MDP-stimulated cells, cell-based, uHTS, luminescence (AID 2001). The assay is classed as functional. Particulars: Homo sapiens.
Assay [15] deals with HEK293. As to the kind of experiment: cells. Type of assay: functional, cell-based. Particulars: Homo sapiens. This is another data set of the same source.
Assay [16] is described as follows: inhibitors of HIV Env-driven cell fusion, dose response, cherry-pick (AID 652057). The assay is classed as functional, cell-based.
A short description of assay [17]: ZM109 Env clade C HIV-1 fusion inhibitors, dose response, HeLa effector, CEM target cells, luciferase, cherry-pick (AID 652058). The assay is classed as functional, cell-based.
The nature of assay [18]: off-target signal loss in HeLa-CEM21 co-culture – HeLa F-luc CTL cells, cherry-picked, counter-screen for HIV-1 Env fusion inhibitor project, dose response (AID 652040).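 Note: potency for signal decrease marking cytotoxic or nonspecific inhibition.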 The assay is classed as functional, cell-based. Background: A counterscreen serves to expose hits that act by an unwanted route or on another target.
Assay [19] is described as follows: inhibitors of clade B AD8 Env fusion, dose response, cell-based, cherry-pick (AID 652062).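 Note: luciferase signal from cell-cell fusion driven by HIV-1 clade B AD8 Env; potency is for inhibitors of fusion seen as a drop in luminescence.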 Type of assay: functional.
A short description of assay [20]: HIV Env cell-cell fusion inhibitors, dose response, HIV entry, plate reader, dry powder (AID 687023). Type of assay: functional, cell-based.
Assay [21] can be described thus: CEM21 cell cytotoxicity, dose response, cytotoxicity control, plate reader, dry powder (AID 687026). The assay is classed as functional, cell-based.
Assay [22] has as its target Sphingosine 1-phosphate receptor 2 (Homo sapiens, UniProt O95136). As to the kind of experiment: Dose Response Cell Based Assay for Antagonists of the S1P2 Receptor. [Related pubchem assays: 856, 736 ]. The assay is classed as functional.
Assay [23] concerns the target RNA-editing ligase 1, mitochondrial (Trypanosoma brucei brucei, UniProt P86926). Nature of the assay: TbREL1 ligase inhibitors, dose response, biochemical, fluorescence, Trypanosoma brucei (AID 1117295). The assay is classed as functional.

Sequence of RNA-editing ligase 1, mitochondrial (P86926 whole entry): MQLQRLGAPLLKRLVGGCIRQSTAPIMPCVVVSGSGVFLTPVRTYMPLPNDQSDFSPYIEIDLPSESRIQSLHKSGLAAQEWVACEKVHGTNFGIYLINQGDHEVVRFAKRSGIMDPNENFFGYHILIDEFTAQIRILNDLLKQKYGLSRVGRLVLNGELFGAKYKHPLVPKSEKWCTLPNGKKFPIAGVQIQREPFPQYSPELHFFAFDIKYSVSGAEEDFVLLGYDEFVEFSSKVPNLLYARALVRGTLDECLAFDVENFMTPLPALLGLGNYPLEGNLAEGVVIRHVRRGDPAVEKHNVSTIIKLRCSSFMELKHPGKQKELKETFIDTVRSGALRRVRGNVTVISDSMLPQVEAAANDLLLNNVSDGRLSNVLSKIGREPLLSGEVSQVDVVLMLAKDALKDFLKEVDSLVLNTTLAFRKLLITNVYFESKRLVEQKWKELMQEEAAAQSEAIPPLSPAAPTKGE
Sequence of Nucleotide-binding oligomerization domain-containing protein 2 (Q9HC29 whole entry, the tested form may be a part): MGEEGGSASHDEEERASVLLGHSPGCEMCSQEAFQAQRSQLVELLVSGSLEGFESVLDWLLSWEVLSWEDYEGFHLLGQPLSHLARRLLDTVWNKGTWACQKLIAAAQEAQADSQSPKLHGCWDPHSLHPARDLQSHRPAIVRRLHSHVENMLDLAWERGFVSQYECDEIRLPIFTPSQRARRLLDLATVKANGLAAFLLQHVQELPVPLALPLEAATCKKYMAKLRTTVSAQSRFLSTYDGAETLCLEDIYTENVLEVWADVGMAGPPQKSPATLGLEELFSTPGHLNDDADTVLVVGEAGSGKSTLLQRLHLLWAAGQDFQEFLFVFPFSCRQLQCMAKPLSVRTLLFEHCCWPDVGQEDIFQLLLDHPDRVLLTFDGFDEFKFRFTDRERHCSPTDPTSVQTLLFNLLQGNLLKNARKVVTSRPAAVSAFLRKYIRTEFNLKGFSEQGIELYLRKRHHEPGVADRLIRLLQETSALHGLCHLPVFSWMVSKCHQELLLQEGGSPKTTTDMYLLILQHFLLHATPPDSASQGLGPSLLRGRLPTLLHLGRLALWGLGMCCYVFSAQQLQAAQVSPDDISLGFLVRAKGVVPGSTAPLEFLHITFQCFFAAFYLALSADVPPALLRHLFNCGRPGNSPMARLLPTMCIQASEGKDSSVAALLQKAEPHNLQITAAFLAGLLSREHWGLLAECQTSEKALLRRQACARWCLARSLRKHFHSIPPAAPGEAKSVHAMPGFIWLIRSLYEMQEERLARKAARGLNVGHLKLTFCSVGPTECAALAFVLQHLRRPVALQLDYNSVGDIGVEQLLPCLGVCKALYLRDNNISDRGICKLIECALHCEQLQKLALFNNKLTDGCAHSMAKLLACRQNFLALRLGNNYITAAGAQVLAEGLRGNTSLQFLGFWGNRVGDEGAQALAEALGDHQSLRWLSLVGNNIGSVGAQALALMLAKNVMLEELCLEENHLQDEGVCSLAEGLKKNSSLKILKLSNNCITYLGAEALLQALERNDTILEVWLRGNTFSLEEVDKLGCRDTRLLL
Sequence of Sphingosine 1-phosphate receptor 2 (O95136 whole entry): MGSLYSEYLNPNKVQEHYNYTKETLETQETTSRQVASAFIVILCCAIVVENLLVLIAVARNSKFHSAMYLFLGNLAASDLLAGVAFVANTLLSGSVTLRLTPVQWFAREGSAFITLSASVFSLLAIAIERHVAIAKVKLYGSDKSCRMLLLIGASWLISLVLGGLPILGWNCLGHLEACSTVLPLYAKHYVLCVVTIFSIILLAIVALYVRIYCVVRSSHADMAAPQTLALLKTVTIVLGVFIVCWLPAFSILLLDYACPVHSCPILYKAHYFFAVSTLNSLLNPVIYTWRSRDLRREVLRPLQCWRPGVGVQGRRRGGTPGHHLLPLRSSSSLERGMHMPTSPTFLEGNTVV
Sequence of Ubiquitin carboxyl-terminal hydrolase BAP1 (Q92560 whole entry): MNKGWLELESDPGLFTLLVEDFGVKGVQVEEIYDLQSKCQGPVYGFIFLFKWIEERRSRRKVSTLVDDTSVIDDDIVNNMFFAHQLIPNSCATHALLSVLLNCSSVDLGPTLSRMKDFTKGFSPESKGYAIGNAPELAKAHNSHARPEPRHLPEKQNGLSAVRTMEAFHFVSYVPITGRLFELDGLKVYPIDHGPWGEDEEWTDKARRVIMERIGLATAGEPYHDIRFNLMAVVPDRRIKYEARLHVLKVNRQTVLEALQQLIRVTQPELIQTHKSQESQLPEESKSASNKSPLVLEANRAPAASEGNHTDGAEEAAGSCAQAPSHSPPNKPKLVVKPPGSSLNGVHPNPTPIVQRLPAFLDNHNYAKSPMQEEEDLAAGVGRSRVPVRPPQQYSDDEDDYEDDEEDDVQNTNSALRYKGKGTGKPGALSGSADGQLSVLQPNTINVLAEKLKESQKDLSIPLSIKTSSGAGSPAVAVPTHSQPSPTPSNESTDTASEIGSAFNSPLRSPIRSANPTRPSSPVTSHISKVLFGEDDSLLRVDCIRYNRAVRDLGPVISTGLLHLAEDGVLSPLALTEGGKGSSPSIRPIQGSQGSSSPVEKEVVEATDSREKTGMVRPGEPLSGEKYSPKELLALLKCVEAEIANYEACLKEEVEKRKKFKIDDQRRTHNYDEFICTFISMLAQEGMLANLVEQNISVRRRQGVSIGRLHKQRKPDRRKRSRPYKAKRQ
Sequence of Paired box protein Pax-8 (Q06710 whole entry): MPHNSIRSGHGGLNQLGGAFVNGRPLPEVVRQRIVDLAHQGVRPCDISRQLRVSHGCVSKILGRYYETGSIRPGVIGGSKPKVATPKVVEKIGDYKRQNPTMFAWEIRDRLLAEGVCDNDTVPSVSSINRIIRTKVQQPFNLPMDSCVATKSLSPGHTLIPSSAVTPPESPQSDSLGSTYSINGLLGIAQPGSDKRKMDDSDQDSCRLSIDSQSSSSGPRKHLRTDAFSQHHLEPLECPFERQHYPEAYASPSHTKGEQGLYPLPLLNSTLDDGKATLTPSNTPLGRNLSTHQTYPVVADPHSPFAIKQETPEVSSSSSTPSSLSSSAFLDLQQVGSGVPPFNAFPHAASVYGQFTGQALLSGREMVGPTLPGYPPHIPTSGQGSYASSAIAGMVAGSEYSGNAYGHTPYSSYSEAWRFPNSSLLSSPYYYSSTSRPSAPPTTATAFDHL

In the case of `O=C(NC1=NCCS1)c1cn(-c2ccccc2)nc1-c1cccnc1`, the IC50 in assay [1] was > 74.4 µM (inactive).

Take `CN1c2ccc(-c3cccc(F)c3)cc2[C@H]2[C@H](CCN2C(=O)Nc2ccccc2F)[C@H]1CO`: the AC50 in [2] was > 47 µM (inactive).

For the molecule `CSc1nc2c(cnn2-c2ccc(C)c(C)c2)c(=O)[nH]1`, the IC50 in assay [3] is reported as > 50 µM (not active).

Consider `C[C@H](CO)N1C[C@H](C)[C@@H](CN(C)Cc2ccc(C(F)(F)F)cc2)OCCCC[C@H](C)Oc2ccc(NS(=O)(=O)c3ccc(F)cc3)cc2C1=O`, for which the AC50 at Paired box protein Pax-8 is 6.28 µM (active); in assay [4] it was 18.8 µM (active); in [5], 24.3 µM (active); in [6], 40.5 µM (active); in assay [7], 55.1 µM (active); in [8], 68.3 µM (active). Besides, the AC50 in assay [9] is 37.7 µM (active).

As to `O=C(CCCn1c(=S)[nH]c2cc3c(cc2c1=O)OCO3)N1CCN(c2ccc(Cl)cc2)CC1`, the EC50 with HEK293 [10] was 7.73 µM (active); in [13], 3.83 µM (active). Further, the IC50 in the assay with HEK293 [11] is 8.75 µM (active); in the assay with HEK293 [12], 16.4 µM (active); at Estrogen receptor, 12.6 µM (active); with HEK293 [14] it was 6.5 µM (active); in the assay on HEK293 [15] it was > 20 µM (inactive). In addition, the AC50 is 2.75 µM (active) in assay [16]; 5.45 µM (active) in assay [17]; 44.3 µM (active) in assay [18]; 7.01 µM (active) in assay [19]; 5.71 µM (active) and 5.84 µM (active) in assay [20]; > 70 µM (inactive) in assay [21].

On to `O=C(O)c1sc2cc(C(F)(F)F)cnc2c1-c1cccs1`, for which the IC50 in [22] is recorded as > 30 µM (not active).

For the molecule `COc1cccc(C(=O)NCCS(=O)(=O)NC(C)CCc2ccccc2)c1` (stereo not given), the IC50 in assay [23] was > 96.6 µM (inactive).

For the origin of these results see ChEMBL document CHEMBL1201862, “PubChem BioAssay data set” (2004).
